Results published in PubChem BioAssay AID1918931 (Molecular Pharmacology Branch, DTP, NCI, 2023).

System: 138582-337-R-J1-PDC complex spheroid viability
Test: Anticancer human tumor 138582-337-R-J1-PDC patient-derived Merkel cell tumor cell line growth inhibition
Conditions: for IC50: curve of first compound; for viability, T/C: stronger effect = lower value
Outline: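 Multicellular complex spheroids of tumor cells with human endothelial cells (HUVEC) and mesenchymal stem cells; the LSD1 inhibitor iadademstat was combined with standard-of-care or investigational agents. Top concentration at or near clinical Cmax, half-log dilutions; final DMSO ≤0.25%.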

[1] = second compound 0.1 µM, first compound 0.000316 µM
[2] = second compound 0.1 µM, first compound 0.001 µM
[3] = second compound 0.1 µM, first compound 0.00316 µM
[4] = second compound 0.1 µM, first compound 0.01 µM
[5] = second compound 0.1 µM, first compound 0.0316 µM
[6] = second compound 0.1 µM, first compound 0.1 µM
[7] = second compound 0.316 µM, first compound 0.000316 µM
[8] = second compound 0.316 µM, first compound 0.001 µM
[9] = second compound 0.316 µM, first compound 0.00316 µM
[10] = second compound 0.316 µM, first compound 0.01 µM
[11] = second compound 0.316 µM, first compound 0.0316 µM
[12] = second compound 0.316 µM, first compound 0.1 µM
[13] = second compound 1 µM, first compound 0.000316 µM
[14] = second compound 1 µM, first compound 0.001 µM
[15] = second compound 1 µM, first compound 0.00316 µM
[16] = second compound 1 µM, first compound 0.01 µM
[17] = second compound 1 µM, first compound 0.0316 µM
[18] = second compound 1 µM, first compound 0.1 µM
[19] = second compound 3.16 µM, first compound 0.000316 µM
[20] = second compound 3.16 µM, first compound 0.001 µM
[21] = second compound 3.16 µM, first compound 0.00316 µM
[22] = second compound 3.16 µM, first compound 0.01 µM
[23] = second compound 3.16 µM, first compound 0.0316 µM
[24] = second compound 3.16 µM, first compound 0.1 µM
[25] = second compound 10 µM, first compound 0.000316 µM
[26] = second compound 10 µM, first compound 0.001 µM
[27] = second compound 10 µM, first compound 0.00316 µM
[28] = second compound 10 µM, first compound 0.01 µM
[29] = second compound 10 µM, first compound 0.0316 µM
[30] = second compound 10 µM, first compound 0.1 µM
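Further: spheroids exposed to agents for 7 days.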
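Wherever viability, T/C is given: 100% = DMSO vehicle control viability.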

`CC(C)CC(NC(=O)C(Cc1ccccc1)NC(=O)c1cnccn1)B(O)O` (stereo not given) + NC1CCC(NC2CC2c2ccccc2)CC1 was tested, and the IC50 (second compound 0.1 µM) was 1.03 nM, the IC50 (second compound 0.316 µM) was 1.01 nM and the IC50 (second compound 1 µM) was 0.946 nM. For the same compound, the IC50 (second compound 3.16 µM) was 0.951 nM, the IC50 (second compound 10 µM) was 0.842 nM and the viability, T/C [1] was 125%. The viability, T/C [2] was 51.3%, the viability, T/C [3] was 0.5% and the viability, T/C [4] was 0.19%. The viability, T/C [5] was 0.22%, the viability, T/C [6] was 0.28% and the viability, T/C [7] was 116%. The viability, T/C [8] was 50.6%, the viability, T/C [9] was 0.83% and the viability, T/C [10] was 0.29%. It also gave a viability, T/C [11] of 0.16%, a viability, T/C [12] of 0.25% and a viability, T/C [13] of 114%. The viability, T/C [14] was 46.8%, the viability, T/C [15] was 0.91% and the viability, T/C [16] was 0.12%. For the same compound, the viability, T/C [17] was 0.14%, the viability, T/C [18] was 0.29% and the viability, T/C [19] was 116%. It also gave a viability, T/C [20] of 47%, a viability, T/C [21] of 1.46% and a viability, T/C [22] of 0.18%. The viability, T/C [23] was 0.15%, the viability, T/C [24] was 0.25% and the viability, T/C [25] was 105%. For the same compound, the viability, T/C [26] was 40.3%, the viability, T/C [27] was 0.75% and the viability, T/C [28] was 0.3%. It also gave a viability, T/C [29] of 0.22% and a viability, T/C [30] of 0.24%.

`CC(C)CC(NC(=O)CNC(=O)c1cc(Cl)ccc1Cl)B1OC(=O)CC(CC(=O)O)(C(=O)O)O1` (stereo not given) + NC1CCC(NC2CC2c2ccccc2)CC1 showed an IC50 (second compound 0.1 µM) of 8.89 nM, an IC50 (second compound 0.316 µM) of 8.97 nM and an IC50 (second compound 1 µM) of 10 nM. It also gave an IC50 (second compound 3.16 µM) of 8.03 nM, an IC50 (second compound 10 µM) of 8.49 nM and a viability, T/C [1] of 101%. It also gave a viability, T/C [2] of 129%, a viability, T/C [3] of 124% and a viability, T/C [4] of 42.3%. For the same compound, the viability, T/C [5] was 6.66%, the viability, T/C [6] was 0.46% and the viability, T/C [7] was 109%. The viability, T/C [8] was 129%, the viability, T/C [9] was 115% and the viability, T/C [10] was 42.9%. The viability, T/C [11] was 11.4%, the viability, T/C [12] was 0.49% and the viability, T/C [13] was 94.4%. For the same compound, the viability, T/C [14] was 115%, the viability, T/C [15] was 120% and the viability, T/C [16] was 50.1%. It also gave a viability, T/C [17] of 7.89%, a viability, T/C [18] of 0.25% and a viability, T/C [19] of 104%. For the same compound, the viability, T/C [20] was 98.8%, the viability, T/C [21] was 112% and the viability, T/C [22] was 37.1%. It also gave a viability, T/C [23] of 9.88%, a viability, T/C [24] of 0.47% and a viability, T/C [25] of 89.8%. For the same compound, the viability, T/C [26] was 105%, the viability, T/C [27] was 101% and the viability, T/C [28] was 42%. For the same compound, the viability, T/C [29] was 7.38% and the viability, T/C [30] was 0.96%.
